Paper PMC5840146, “Structure-Activity Relationship Analysis of 3-Phenylcoumarin-Based Monoamine Oxidase B Inhibitors” (Frontiers in Chemistry, 2018)

Columns and labels:
[1] = biological target: T1, MAO-A (Homo sapiens, UniProt P21397); test: continuous spectrophotometric MAO-A inhibition assay; type: biochemical; conditions: for MAO-A inhibition %: 100 µM, 1h
T1 construct: purchased Sigma-Aldrich
T1 sequence (P21397 1-527): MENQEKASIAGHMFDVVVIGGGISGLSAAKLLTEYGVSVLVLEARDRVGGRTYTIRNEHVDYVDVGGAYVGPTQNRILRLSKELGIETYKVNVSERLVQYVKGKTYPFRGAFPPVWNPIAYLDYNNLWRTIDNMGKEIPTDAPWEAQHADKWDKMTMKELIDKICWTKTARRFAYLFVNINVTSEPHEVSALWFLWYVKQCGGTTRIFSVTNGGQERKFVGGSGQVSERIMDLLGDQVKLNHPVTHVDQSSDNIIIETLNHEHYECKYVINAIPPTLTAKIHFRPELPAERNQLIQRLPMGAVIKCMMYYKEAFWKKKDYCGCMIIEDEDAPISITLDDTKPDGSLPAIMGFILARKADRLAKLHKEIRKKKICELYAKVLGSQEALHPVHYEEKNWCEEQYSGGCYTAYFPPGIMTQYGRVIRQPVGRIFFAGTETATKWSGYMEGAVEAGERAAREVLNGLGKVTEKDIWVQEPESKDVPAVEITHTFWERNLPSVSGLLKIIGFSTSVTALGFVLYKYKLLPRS
Experimental: Both monoamine oxidase A (MAO-A) and B (MAO-B) protein and the reagents for the chromogenic solution of vanillic acid (4-hydroxy-3-methoxylbenzoic acid, 97% purity), 4-aminoantipyrine (reagent grade), horseradish peroxidase and the substrate tyramine hydrochloride (minimum 99% purity) as well as the potassium phosphate buffer, which was prepared using potassium phosphate dibasic trihydrate (≥99% ReagentPlus™) and potassium phosphate monobasic (minimum 98% purity, molecular biology tested), were purchased from Sigma-Aldrich (St. Louis, MO, USA) for the spectrophotometric assay.
The protocol for continuous spectrophotometric assay (Holt et al., [1997]) was followed in the activity measurements. The assay was performed in 0.2 M potassium phosphate buffer pH 7.6 on 96-well plates (Nunc™ 96F microwell plate without a lid, Nunc A/S, Roskilde, DK) in 200 μl total volume. The chromogenic solution containing 1 mM vanillic acid, 500 μM 4-aminoantipyrine and 8 U/ml horseradish peroxidase in 0.2 M potassium phosphate buffer pH 7.6 was mixed anew for each measurement. 5 mM tyramine solution was used as the substrate. In order to determine the activity of both MAO-B and MAO-A, concentration series as duplicates were prepared. The protein was combined with the chromogenic solution and incubated 30 min at 37°C. The background signal was measured using multilabel reader (Victor^TM X4, 2030 Multilabel Reader, PerkinElmer, Waltham, MA, USA) at A490 before reaching the total 200 μl volume by adding 20 μl of tyramine to final concentration of 0.5 mM on the plate. As a result, the final concentration of the chromogenic solution on the plate was 250 μM vanillic acid, 125 μM 4-aminoantipyrine and 2 U/ml horseradish peroxide. After adding the substrate, the plates were measured 300 times every 15 s using 1 s exposure time. The device was set to 37°C for the duration of the experiment.
The experiment conditions should produce absorbance change of ~0.35 (Holt et al., [1997]). […] The same wide panel of coumarin derivatives was additionally used to analyze the MAO-A inhibition at 100 μM (Table 1, Supplementary Table S1).
The measured data was then fitted on a curve using non-linear regression with the equation for log[inhibitor] vs. response. The IC50 values were therefore determined based on the curve fit. The fitted curves are shown on –log scale in Supplementary Figures S1, S2.

[2] = biological target: T2, human CYP1A2 (Homo sapiens, UniProt P05177); test: CYP1A2 inhibition, 7-ethoxyresorufin fluorescence assay; type: biochemical
T2 construct: purchased Corning Inc
T2 sequence (P05177 1-516): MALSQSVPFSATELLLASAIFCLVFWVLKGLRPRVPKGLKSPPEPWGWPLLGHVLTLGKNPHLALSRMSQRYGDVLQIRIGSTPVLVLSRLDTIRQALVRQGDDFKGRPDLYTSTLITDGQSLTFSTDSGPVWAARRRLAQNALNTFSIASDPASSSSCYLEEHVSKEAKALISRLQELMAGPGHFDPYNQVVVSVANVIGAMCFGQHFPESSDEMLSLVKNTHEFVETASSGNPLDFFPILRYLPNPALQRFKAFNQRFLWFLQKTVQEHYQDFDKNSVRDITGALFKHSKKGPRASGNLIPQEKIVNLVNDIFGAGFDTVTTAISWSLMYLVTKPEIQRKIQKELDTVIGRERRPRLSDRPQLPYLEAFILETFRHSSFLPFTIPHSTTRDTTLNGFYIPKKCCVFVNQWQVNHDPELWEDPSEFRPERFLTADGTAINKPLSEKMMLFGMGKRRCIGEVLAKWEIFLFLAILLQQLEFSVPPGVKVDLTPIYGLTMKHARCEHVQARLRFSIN
Experimental: Inhibition of CYP1A2 activity was determined with commercial heterologously expressed human CYP1A2 enzyme (Corning Inc., Corning, NY, USA) as described earlier (Korhonen et al., [2005]). The metabolic activity was not in the scope of this particular study. The assay was adapted to the 96-well plate format. In each well, a 150 μL incubation volume contained 100 mM Tris-HCl buffer (pH 7.4), 4.2 mM MgCl2,1 μM 7-ethoxyresorufin, 0.5 pmol of cDNA expressed CYP1A2, […] inhibitor, and a NADPH-generating system. All inhibitors were dissolved in ethanol, and the final concentration of ethanol was 2% in all incubations. The reaction was initiated by adding the NADPH-regenerating system after a 10 min preincubation at 37°C, and after a 20 min incubation, the reaction was terminated by the addition of 110 μL of 80% acetonitrile/20% 0.5 M Tris base. The formed fluorescence was measured with a Victor2 plate counter (Perkin-Elmer Life Sciences Wallac, Turku, Finland) at 570 nm excitation and 616 nm emission.

Cc1ccc2oc(=O)c(-c3ccc(C(F)(F)F)cc3)cc2c1 [derivative 5, 6-methyl-3-(4-(trifluoromethyl)phenyl)-2H-chromen-2-one]
inhibition at 100 µM [1]: 0%
IC50 [2]: 171 µM

COc1ccc2cc(-c3ccc(O)c(F)c3)c(=O)oc2c1 [derivative 20, 3-(3-fluoro-4-hydroxyphenyl)-7-methoxy-2H-chromen-2-one]
inhibition at 100 µM [1]: 0%
IC50 [2]: 30 µM

COc1ccc2oc(=O)c(-c3ccc(O)c(F)c3)cc2c1 [derivative 22, 3-(3-fluoro-4-hydroxyphenyl)-6-methoxy-2H-chromen-2-one]
inhibition at 100 µM [1]: 0%
IC50 [2]: 1.5 µM

O=c1oc2ccc(O)cc2cc1-c1cccc(O)c1 [derivative 38]
MAO-A inhibition % [1]: 13.11%
IC50 [2]: 24 µM

COc1ccc(-c2cc3cccc(O)c3oc2=O)cc1 [derivative 33]
MAO-A inhibition % [1]: 3.66%
IC50 [2]: 86 µM

COc1ccc2oc(=O)c(-c3ccc(Oc4ccc(F)cc4)cc3)cc2c1 [derivative 46]
MAO-A inhibition % [1]: 8.11%
IC50 [2]: 240 µM

COc1ccc(-c2cc3ccc(O)cc3oc2=O)cc1 [derivative 12, 7-hydroxy-3-(4-methoxyphenyl)-2H-chromen-2-one]
inhibition at 100 µM [1]: 24.6%
IC50 [2]: 170 µM

O=c1oc2ccc(O)cc2cc1-c1ccc(O)cc1 [derivative 48]
MAO-A inhibition % [1]: 0.00%
IC50 [2]: 33 µM

O=c1oc2ccc(O)cc2cc1-c1ccc(F)cc1 [derivative 24, 3-(4-fluorophenyl)-6-hydroxy-2H-chromen-2-one]
inhibition at 100 µM [1]: 14.2%
IC50 [2]: 3 µM

CC(=O)Oc1ccc2cc(-c3ccc(F)cc3)c(=O)oc2c1 [derivative 28]
MAO-A inhibition % [1]: 0.00%
IC50 [2]: 114 µM

O=c1oc2cc(O)ccc2cc1-c1ccc(O)cc1 [derivative 30]
MAO-A inhibition % [1]: 0.00%
IC50 [2]: 22 µM

COc1cccc(-c2cc3cc(OC)ccc3oc2=O)c1 [derivative 8, 6-methoxy-3-(3-methoxyphenyl)-2H-chromen-2-one]
inhibition at 100 µM [1]: 0%
IC50 [2]: 2.3 µM

O=c1oc2cc(O)ccc2cc1-c1ccccc1 [derivative 41]
MAO-A inhibition % [1]: 9.52%
IC50 [2]: 8 µM

COc1ccc2oc(=O)c(-c3ccc(N(C)C)cc3)cc2c1 [derivative 18, 3-(4-(dimethylamino)phenyl)-6-methoxy-2H-chromen-2-one]
inhibition at 100 µM [1]: 0%
IC50 [2]: 17 µM

O=c1oc2ccccc2cc1-c1ccc(O)cc1 [derivative 29]
MAO-A inhibition % [1]: 0.00%
IC50 [2]: 26 µM

COc1ccc(-c2cc3ccccc3oc2=O)cc1 [derivative 36]
MAO-A inhibition % [1]: 0.87%
IC50 [2]: 26 µM

Cc1ccc(-c2cc3ccc(O)cc3oc2=O)cc1 [derivative 27]
MAO-A inhibition % [1]: 43.83%
IC50 [2]: 180 µM

O=c1oc2cc(O)ccc2cc1-c1ccc(F)cc1 [derivative 39]
MAO-A inhibition % [1]: 12.56%
IC50 [2]: 240 µM

COc1ccc2oc(=O)c(-c3cc(F)c(F)cc3F)cc2c1 [derivative 15, 6-methoxy-3-(2,4,5-trifluorophenyl)-2H-chromen-2-one]
inhibition at 100 µM [1]: 0%
IC50 [2]: 3 µM

COc1cccc(-c2cc3ccc(OC)cc3oc2=O)c1 [derivative 25]
MAO-A inhibition % [1]: 0.00%
IC50 [2]: 35 µM

Cc1ccc2oc(=O)c(-c3ccc(F)cc3)cc2c1 [derivative 23, 3-(4-fluorophenyl)-6-methyl-2H-chromen-2-one]
inhibition at 100 µM [1]: 0%
IC50 [2]: 3 µM

COc1cccc(-c2cc3ccccc3oc2=O)c1 [derivative 11, 3-(3-methoxyphenyl)-2H-chromen-2-one]
inhibition at 100 µM [1]: 0%
IC50 [2]: 1.6 µM

COc1ccc2cc(-c3cc(F)c(F)cc3F)c(=O)oc2c1 [derivative 16, 7-methoxy-3-(2,4,5-trifluorophenyl)-2H-chromen-2-one]
IC50 [2]: 4.5 µM

O=c1oc2ccccc2cc1-c1cccc(O)c1 [derivative 31]
MAO-A inhibition % [1]: 4.14%
IC50 [2]: 7 µM

COc1ccc2oc(=O)c(-c3ccc(F)cc3)cc2c1 [derivative 21, 3-(4-fluorophenyl)-6-methoxy-2H-chromen-2-one]
inhibition at 100 µM [1]: 0%
IC50 [2]: 3 µM
